The source of these data is ChEMBL document CHEMBL3244013, “Central nervous system activity of a novel class of annelated 1,4-benzodiazepines, aminomethylene-2,4-dihydro-1H-imidazo[1,2-a][1,4]benzodiazepin-1-ones” (J Med Chem, 1977).

The term ED50 denotes the dose that gives a 50% effect, or the effect in half of the subjects.

In data set [1] the test system is Mus musculus. Nature of the data set: Induction of muscle relaxation in po dosed CD-1 mouse after 30 mins by rotary drum test. Format: functional. Conditions: CD-1, po, 0.5 h.
In data set [2] the test system is Mus musculus. Nature of the data set: Potentiation of hexobarbital-induced sedative effect in po dosed CD-1 mouse assessed as loss of righting reflex after 30 secs. The format is functional. Conditions: CD-1, po.
Data set [3] deals with Mus musculus. Nature of the data set: Anticonvulsant activity in po dosed CD-1 mouse assessed as protection against maximal electroshock-induced convulsion. The format is functional. The note with it: CD-1, po. Background: Protection in the maximal electroshock model is a classic sign of anticonvulsant action.
Data set [4] concerns Mus musculus. Nature of the data set: Acute toxicity in po dosed CD-1 mouse assessed as mortality after 24 hrs. The format is organism-based. Conditions: in vivo.
Data set [5] deals with Mus musculus. Nature of the data set: Potentiation of chlorprothixene-induced sedative effect in po dosed CD-1 mouse assessed as loss of righting reflex. The format is functional. The note with it: CD-1, po.
Data set [6] relates to Mus musculus. Nature of the data set: Anticonvulsant activity in po dosed CD-1 mouse assessed as protection against pentylenetetrazole-induced convulsion. Format: functional. Conditions: CD-1, po.
The subject of data set [7] is Mus musculus. Nature of the data set: Antianxiety activity in po dosed CD-1 mouse assessed as inhibition of foot shock-induced aggression after 30 mins relative to control. The format is functional. The note with it: CD-1, po, 0.5 h.
The subject of data set [8] is Mus musculus. Nature of the data set: Anticonvulsant activity in po dosed CD-1 mouse assessed as protection against strychnine-induced convulsion after 30 mins. Format: functional. The note with it: CD-1, po, 0.5 h.

With `CN1CCN(/C=C2\N=C3CN=C(c4ccccc4F)c4cc([N+](=O)[O-])ccc4N3C2=O)CC1`, the ED50 in the data set on Mus musculus [1] is 1.5 mg/kg; in the data set on Mus musculus [2] it was 0.8 mg/kg; with Mus musculus [3], 1.2 mg/kg; with Mus musculus [4], more than 1000 mg/kg; with Mus musculus [5], 1.6 mg/kg; in the data set with Mus musculus [6] it was 0.13 mg/kg. Moreover, the ED50 in the data set with Mus musculus [7] was found to be 0.26 mg/kg; with Mus musculus [8], 0.46 mg/kg.
With `CCN1CCN(/C=C2\N=C3CN=C(c4ccccc4)c4cc(Cl)ccc4N3C2=O)CC1`, the ED50 in the data set on Mus musculus [1] is 1.6 mg/kg; in the data set on Mus musculus [2] it was 1.1 mg/kg; with Mus musculus [3], 2.2 mg/kg; with Mus musculus [4] it was more than 1000 mg/kg; in the data set with Mus musculus [5], 5 mg/kg; with Mus musculus [6] it was 0.48 mg/kg. Besides, the ED50 in the data set on Mus musculus [7] was 0.94 mg/kg; in the data set on Mus musculus [8] it was 5.5 mg/kg.
Regarding `CCN1CCN(/C=C2\N=C3CN=C(c4ccccc4Cl)c4cc(Cl)ccc4N3C2=O)CC1`, the ED50 in the data set on Mus musculus [1] was 0.56 mg/kg; in the data set with Mus musculus [2], 2.5 mg/kg; in the data set on Mus musculus [3] it was 2.2 mg/kg; in the data set on Mus musculus [4] it was more than 1000 mg/kg; in the data set with Mus musculus [5], 1.2 mg/kg; in the data set on Mus musculus [6], 0.087 mg/kg. For the same molecule, the ED50 with Mus musculus [7] stood at 0.5 mg/kg; with Mus musculus [8], 2.3 mg/kg.
In the case of `CCN1CCN(/C=C2\N=C3CN=C(c4ccccc4Cl)c4cc([N+](=O)[O-])ccc4N3C2=O)CC1`, the 50% effective dose (ED50) was 0.46 mg/kg with Mus musculus [1]; 0.8 mg/kg in the data set on Mus musculus [2]; 2.8 mg/kg in the data set with Mus musculus [3]; more than 1000 mg/kg with Mus musculus [4]; 0.99 mg/kg with Mus musculus [5]; 0.15 mg/kg in the data set on Mus musculus [6]. The 50% effective dose (ED50) in the data set on Mus musculus [7] turned out to be 0.34 mg/kg; in the data set with Mus musculus [8], 2.8 mg/kg.
For `CN1CCN(/C=C2\N=C3CN=C(c4ccccc4Cl)c4cc(Cl)ccc4N3C2=O)CC1`, the ED50 was 0.78 mg/kg in the data set on Mus musculus [1]; 0.074 mg/kg in the data set on Mus musculus [2]; 2.1 mg/kg in the data set with Mus musculus [3]; more than 1000 mg/kg with Mus musculus [4]; 1.6 mg/kg in the data set with Mus musculus [5]; 0.165 mg/kg in the data set on Mus musculus [6]. Moreover, the ED50 with Mus musculus [7] was determined as 0.2 mg/kg; in the data set with Mus musculus [8], 1.8 mg/kg.
Regarding `O=C1/C(=C/N2CCN(CC3CC3)CC2)N=C2CN=C(c3ccccc3)c3cc(Cl)ccc3N12`, the ED50 in the data set with Mus musculus [1] is 6.2 mg/kg; in the data set on Mus musculus [2] it was 30 mg/kg; in the data set with Mus musculus [3], 10.5 mg/kg; in the data set on Mus musculus [4], more than 1000 mg/kg; with Mus musculus [5], 25 mg/kg; in the data set with Mus musculus [6] it was 3.5 mg/kg. For the same molecule, the ED50 in the data set on Mus musculus [7] turned out to be 4.65 mg/kg; in the data set with Mus musculus [8], 30 mg/kg.
Regarding `CCCCN/C=C1\N=C2CN=C(c3ccccc3)c3cc(Cl)ccc3N2C1=O`, the ED50 with Mus musculus [1] is 24 mg/kg; in the data set on Mus musculus [2], 0.66 mg/kg; in the data set on Mus musculus [3] it was 12.5 mg/kg; with Mus musculus [4], more than 1000 mg/kg; in the data set on Mus musculus [5], 1.8 mg/kg; in the data set on Mus musculus [6], 1.15 mg/kg. The median effective dose (ED50) in the data set on Mus musculus [7] was found to be 3.35 mg/kg; in the data set with Mus musculus [8], 17 mg/kg.
On to `CCN1CCN(/C=C2\N=C3CN=C(c4ccccc4F)c4cc(Cl)ccc4N3C2=O)CC1`, for which the ED50 in the data set with Mus musculus [1] is 0.7 mg/kg; in the data set with Mus musculus [2], 2.8 mg/kg; in the data set with Mus musculus [3] it was 1.55 mg/kg; in the data set with Mus musculus [4] it was more than 1000 mg/kg; in the data set on Mus musculus [5], 2.35 mg/kg; in the data set with Mus musculus [6], 0.155 mg/kg. For the same molecule, the ED50 with Mus musculus [7] stood at 0.48 mg/kg; with Mus musculus [8], 1.6 mg/kg.
Take `CN(C)/C=C1\N=C2CN=C(c3ccccc3)c3cc(Cl)ccc3N2C1=O`: the median effective dose (ED50) was more than 50 mg/kg in the data set on Mus musculus [1]; more than 50 mg/kg with Mus musculus [2]; 42 mg/kg in the data set with Mus musculus [3]; more than 1000 mg/kg in the data set on Mus musculus [4]; more than 50 mg/kg in the data set with Mus musculus [5]; 5 mg/kg with Mus musculus [6]. Moreover, the 50% effective dose (ED50) with Mus musculus [7] was 14 mg/kg; with Mus musculus [8], more than 50 mg/kg.
`C=CCN1CCN(/C=C2\N=C3CN=C(c4ccccc4)c4cc(Cl)ccc4N3C2=O)CC1`: the 50% effective dose (ED50) with Mus musculus [1] was 13 mg/kg; in the data set on Mus musculus [2] it was 25 mg/kg; in the data set with Mus musculus [3], 13.5 mg/kg; with Mus musculus [4], more than 1000 mg/kg; with Mus musculus [5], 18 mg/kg; with Mus musculus [6], 21 mg/kg. The ED50 in the data set with Mus musculus [7] was 2.3 mg/kg; with Mus musculus [8], more than 50 mg/kg.
For the molecule `CCCCN1CCN(/C=C2\N=C3CN=C(c4ccccc4)c4cc(Cl)ccc4N3C2=O)CC1`, the ED50 is 9 mg/kg with Mus musculus [1]; 44 mg/kg with Mus musculus [2]; 20.5 mg/kg in the data set on Mus musculus [3]; more than 1000 mg/kg in the data set on Mus musculus [4]; more than 50 mg/kg with Mus musculus [5]; 2 mg/kg with Mus musculus [6]. In addition, the ED50 in the data set on Mus musculus [7] was 1.5 mg/kg; in the data set on Mus musculus [8], 24 mg/kg.
Consider `CN1CCN(/C=C2\N=C3CN=C(c4ccccc4Cl)c4cc([N+](=O)[O-])ccc4N3C2=O)CC1` [LOPRAZOLAM], for which the ED50 was 2.2 mg/kg in the data set on Mus musculus [1]; 1 mg/kg with Mus musculus [2]; 0.76 mg/kg in the data set with Mus musculus [3]; more than 1000 mg/kg in the data set with Mus musculus [4]; 1.1 mg/kg with Mus musculus [5]; 0.028 mg/kg in the data set on Mus musculus [6]. The median effective dose (ED50) with Mus musculus [7] was found to be 0.42 mg/kg; in the data set with Mus musculus [8] it was 0.41 mg/kg.
Turning to `O=C1/C(=C/N2CCSCC2)N=C2CN=C(c3ccccc3)c3cc(Cl)ccc3N12`, the 50% effective dose (ED50) was more than 50 mg/kg in the data set with Mus musculus [1]; more than 50 mg/kg in the data set with Mus musculus [2]; more than 50 mg/kg in the data set on Mus musculus [3]; more than 1000 mg/kg in the data set on Mus musculus [4]; more than 50 mg/kg with Mus musculus [5]; more than 50 mg/kg with Mus musculus [6]. For the same molecule, the results for the ED50 in the data set with Mus musculus [7] and in the data set on Mus musculus [8] were more than 20 mg/kg and more than 50 mg/kg, respectively.
